Laboratory results taken from PubChem BioAssay (NCI).
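Test compounds were applied to cells in 96-well plates for 48 hours at 5 doses. GI50: concentration for 50% inhibition of growth. TGI marks complete inhibition of growth.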

Tests used:
Assay in all cases: NCI-60 cell line screen, 48 h
HCC-2998 colon = system: HCC-2998 colon
COLO 205 colon = system: COLO 205 colon
T-47D breast = system: T-47D breast
OVCAR-5 ovarian = system: OVCAR-5 ovarian
UACC-62 melanoma = system: UACC-62 melanoma
HCT-116 colon = system: HCT-116 colon
SW-620 colon = system: SW-620 colon
OVCAR-8 ovarian = system: OVCAR-8 ovarian
SK-MEL-5 melanoma = system: SK-MEL-5 melanoma
KM12 colon = system: KM12 colon
A498 renal = system: A498 renal
ACHN renal = system: ACHN renal
DU-145 prostate = system: DU-145 prostate
MOLT-4 leukemia = system: MOLT-4 leukemia
SF-539 CNS = system: SF-539 CNS
U251 CNS = system: U251 CNS
RXF 393 renal = system: RXF 393 renal
UACC-257 melanoma = system: UACC-257 melanoma
NCI-H460 lung = system: NCI-H460 lung
UO-31 renal = system: UO-31 renal
NCI/ADR-RES ovarian = system: NCI/ADR-RES ovarian
MDA-MB-435 = system: MDA-MB-435
M14 melanoma = system: M14 melanoma
PC-3 prostate = system: PC-3 prostate
HOP-92 NSCLC = system: HOP-92 NSCLC
HCT-15 colon = system: HCT-15 colon
NCI-H23 lung = system: NCI-H23 lung
IGROV1 ovarian = system: IGROV1 ovarian
TK-10 renal = system: TK-10 renal
SK-OV-3 ovarian = system: SK-OV-3 ovarian
BT-549 breast = system: BT-549 breast
HT29 colon = system: HT29 colon
SK-MEL-2 melanoma = system: SK-MEL-2 melanoma
NCI-H522 lung = system: NCI-H522 lung
K-562 leukemia = system: K-562 leukemia
HL-60(TB) leukemia = system: HL-60(TB) leukemia
A549 NSCLC = system: A549 NSCLC
MDA-MB-231 breast = system: MDA-MB-231 breast
SF-268 CNS = system: SF-268 CNS
CAKI-1 renal = system: CAKI-1 renal
OVCAR-4 ovarian = system: OVCAR-4 ovarian
NCI-H226 lung = system: NCI-H226 lung
HOP-62 NSCLC = system: HOP-62 NSCLC
LOX IMVI melanoma = system: LOX IMVI melanoma
SF-295 CNS = system: SF-295 CNS
EKVX NSCLC = system: EKVX NSCLC
SNB-75 CNS = system: SNB-75 CNS
RPMI-8226 leukemia = system: RPMI-8226 leukemia
SN12C renal = system: SN12C renal
SK-MEL-28 melanoma = system: SK-MEL-28 melanoma
MALME-3M melanoma = system: MALME-3M melanoma
OVCAR-3 ovarian = system: OVCAR-3 ovarian
MCF7 breast = system: MCF7 breast
HS 578T breast = system: HS 578T breast
SR leukemia = system: SR leukemia

## COc1ccc(S(=O)(=O)Nc2cc(Sc3cccc4cccnc34)c(O)c3ccccc23)cc1
HCC-2998 colon
  GI50: 6.7 µM
  TGI: 21.3 µM
COLO 205 colon
  GI50: 1.66 µM
  TGI: 4.12 µM
T-47D breast
  GI50: 1.73 µM
  TGI: 5.64 µM
OVCAR-5 ovarian
  GI50: 2.83 µM
  TGI: 12.7 µM
UACC-62 melanoma
  GI50: 2.04 µM
  TGI: 6.83 µM
HCT-116 colon
  GI50: 0.505 µM
  TGI: 2.35 µM
SW-620 colon
  GI50: 0.815 µM
  TGI: 3.62 µM
OVCAR-8 ovarian
  GI50: 0.595 µM
  TGI: 18.8 µM
SK-MEL-5 melanoma
  GI50: 1.33 µM
  TGI: 2.85 µM
KM12 colon
  GI50: 1.64 µM
  TGI: 15 µM
A498 renal
  GI50: 2.27 µM
  TGI: 16.5 µM
ACHN renal
  GI50: 0.731 µM
  TGI: 10 µM
DU-145 prostate
  GI50: 0.738 µM
  TGI: 2.65 µM
MOLT-4 leukemia
  GI50: 0.563 µM
  TGI: 8.08 µM
SF-539 CNS
  GI50: 1.49 µM
  TGI: 6.52 µM
U251 CNS
  GI50: 0.579 µM
  TGI: 11.9 µM
RXF 393 renal
  GI50: 1.24 µM
  TGI: 6.33 µM
UACC-257 melanoma
  GI50: 1.85 µM
  TGI: 6.04 µM
NCI-H460 lung
  GI50: 0.466 µM
  TGI: 10.5 µM
UO-31 renal
  GI50: 0.926 µM
  TGI: 8.61 µM
NCI/ADR-RES ovarian
  GI50: 0.707 µM
  TGI: 12.2 µM
MDA-MB-435
  GI50: 2.2 µM
  TGI: 13.2 µM
M14 melanoma
  GI50: 1.3 µM
  TGI: 12.1 µM
PC-3 prostate
  GI50: 0.512 µM
  TGI: 10.6 µM
HOP-92 NSCLC
  GI50: 1.55 µM
  TGI: 5.93 µM
HCT-15 colon
  GI50: 0.477 µM
  TGI: 8.23 µM
NCI-H23 lung
  GI50: 1.46 µM
  TGI: 10.8 µM
IGROV1 ovarian
  GI50: 1.09 µM
  TGI: 7.2 µM
TK-10 renal
  GI50: 2.82 µM
  TGI: 13.7 µM
SK-OV-3 ovarian
  GI50: 3.59 µM
  TGI: 14.4 µM
BT-549 breast
  GI50: 2.65 µM
  TGI: 16.9 µM
HT29 colon
  GI50: 0.823 µM
  TGI: 10.4 µM
SK-MEL-2 melanoma
  GI50: 1.37 µM
  TGI: 6.26 µM
NCI-H522 lung
  GI50: 1.36 µM
  TGI: 3.74 µM
K-562 leukemia
  GI50: 0.926 µM
  TGI: 11.2 µM
HL-60(TB) leukemia
  GI50: 1.18 µM
  TGI: 4.94 µM
A549 NSCLC
  GI50: 0.587 µM
  TGI: 12.8 µM
MDA-MB-231 breast
  GI50: 0.992 µM
  TGI: 12.5 µM
SF-268 CNS
  GI50: 1.55 µM
  TGI: 9.81 µM
CAKI-1 renal
  GI50: 2.53 µM
  TGI: 10.5 µM
OVCAR-4 ovarian
  GI50: 0.609 µM
  TGI: 1.93 µM
NCI-H226 lung
  GI50: 2.28 µM
  TGI: 19.9 µM
HOP-62 NSCLC
  GI50: 1.71 µM
  TGI: 21.7 µM
LOX IMVI melanoma
  GI50: 0.372 µM
SF-295 CNS
  GI50: 2.23 µM
  TGI: 13.3 µM
EKVX NSCLC
  GI50: 1.44 µM
  TGI: 10.9 µM
SNB-75 CNS
  GI50: 3.41 µM
  TGI: 13.5 µM
RPMI-8226 leukemia
  GI50: 2.47 µM
  TGI: 8.92 µM
SN12C renal
  GI50: 1.06 µM
  TGI: 4.99 µM
SK-MEL-28 melanoma
  GI50: 2.55 µM
  TGI: 13.2 µM
MALME-3M melanoma
  GI50: 2.88 µM
  TGI: 11.5 µM
OVCAR-3 ovarian
  GI50: 0.695 µM
  TGI: 3.81 µM
MCF7 breast
  GI50: 0.42 µM
  TGI: 2.77 µM
HS 578T breast
  GI50: 3.09 µM
  TGI: 28.9 µM
SR leukemia
  GI50: 0.358 µM
  TGI: > 100 µM
